Data set [1] has as its target Replicase polyprotein 1ab (Severe acute respiratory syndrome coronavirus 2, UniProt P0DTD1). Nature of the data set: Inhibition of recombinant SARS-CoV-2 main protease using DABCYL-KTSAVLQSGFRKME-EDANS as fluorescent substrate preincubated for 30 mins followed by substrate addition by FRET assay.
The nature of data set [2]: Cytotoxicity against African green monkey Vero cells assessed as change in cell morphology by measuring minimum cytotoxic concentration by microscopic analysis. Format: toxicity, cell-based. Conditions: chlorocebus sabaeus.
A further data set concerns Human coronavirus 229E. Type of data set: functional, organism-based.
A further data set relates to Human coronavirus OC43. Type of data set: functional, organism-based.
Data set [3] is described as follows: Stability in simulated gastric fluid assessed as parent compound remaining incubated upto 120 mins by LC-MS analysis. Type of data set: ADME. Conditions: read-out: Stability.
A short description of data set [4]: Stability in simulated intestinal fluid assessed as parent compound remaining incubated upto 120 mins by LC-MS analysis. Type of data set: ADME. The settings on record: read-out: Stability.
Data set [5] can be described thus: Half life in human plasma at 10 uM measured upto 180 mins by LC-MS analysis. Type of data set: ADME, cell-free.
The nature of data set [6]: Metabolic stability in human liver microsomes assessed as half life incubated upto 60 mins in presence of NADPH by LC-MS analysis. Type of data set: ADME, Microsome. A general note: Liver microsomes are vesicles of endoplasmic reticulum, rich in cytochrome P450 enzymes.
Data set [7] in a line: Metabolic stability in human liver microsomes assessed as half life incubated upto 60 mins in presence of NADPH and UDPGA by LC-MS analysis. Type of data set: ADME, Microsome.
The nature of data set [8]: Metabolic stability in human liver microsomes assessed as intrinsic clearance incubated upto 60 mins in presence of NADPH by LC-MS analysis. Type of data set: ADME, Microsome. The settings on record: read-out: CLH.
The test system of data set [9] is SARS-CoV-2. Nature of the data set: microbe, parasite or virus in culture. The settings on record: Severe acute respiratory syndrome coronavirus 2, Wuhan/WIV04/2020, Vero.
Description: Antiviral activity against SARS-CoV-2 Wuhan/WIV04/2020 infected in African green monkey Vero cells assessed as reduction in virus-induced cytopathic effect incubated for 6 to 7 days by microscopic analysis
Data set [10] has as its system SARS-CoV-2. Kind of data set: microbe, parasite or virus in culture. The settings on record: Severe acute respiratory syndrome coronavirus 2, NVDBB-2220 (Alpha), Vero.
Description: Antiviral activity against SARS-CoV-2 NVDBB-2220 (Alpha) infected in African green monkey Vero cells assessed as reduction in virus-induced cytopathic effect incubated for 6 to 7 days by microscopic analysis
Data set [11] deals with SARS-CoV-2. Kind of data set: microbe, parasite or virus in culture. Conditions: Severe acute respiratory syndrome coronavirus 2, 860-J1 (Delta), Vero.
Description: Antiviral activity against SARS-CoV-2 860-J1 (Delta) infected in African green monkey Vero cells assessed as reduction in virus-induced cytopathic effect incubated for 6 to 7 days by microscopic analysis
Data set [12] has as its system SARS-CoV-2. Kind of data set: microbe, parasite or virus in culture. The settings on record: Severe acute respiratory syndrome coronavirus 2, Omicron B1.1.529, Vero.
Description: Antiviral activity against SARS-CoV-2 Omicron B1.1.529 infected in African green monkey Vero cells assessed as reduction in virus-induced cytopathic effect incubated for 6 to 7 days by microscopic analysis

Active and inactive are the calls of the source. Residues, ends and D or L forms follow the SMILES beside them. *: point of attachment. NHBn = c1ccc(CN*)cc1; ClAc = O=C(CCl)* A value given as a limit tells only on which side of the number the result lay.

As to `CC(C)C[C@@H](NC(=O)CCl)C(=O)N[C@@H](Cc1c[nH]c2ccccc12)C(=O)NCc1ccccc1`, the IC50 in data set [1] is > 30000 nM. The MCC in data set [2] is > 100 µM. The outcome with Human coronavirus 229E and in the data set with Human coronavirus OC43 was Active. The remaining at 2 h in data set [3] and in data set [4] was > 80% each time. In addition, the half-life at 10 µM in data set [5] was 3.87 h. The half-life stood at 1.24 h in data set [6] and 1.25 h in data set [7]. Also, the CLint scaled in data set [8] is < 45 mL/min/kg. For the same molecule, the EC50 with SARS-CoV-2 [9] turned out to be 80 nM; with SARS-CoV-2 [10], 570 nM; with SARS-CoV-2 [11], 1080 nM; in the data set with SARS-CoV-2 [12] it was 1370 nM.

As to `CC(C)C[C@H](NC(=O)[C@H](Cc1c[nH]c2ccccc12)NC(=O)CCl)C(=O)NCc1ccccc1` (ClAc-Trp-Leu-NHBn), in data set [1], the IC50 was determined as 8320 nM. The MCC in data set [2] came to 20 µM. The result with Human coronavirus 229E and in the data set with Human coronavirus OC43 was Active. Also, the remaining at 2 h in [3] and in [4] was > 80% throughout. Besides, in [5], the half-life at 10 µM amounted to 0.407 h. In addition, the EC50 was 250 nM in the data set on SARS-CoV-2 [9], 410 nM in the data set with SARS-CoV-2 [10], 1250 nM in the data set with SARS-CoV-2 [11] and 400 nM in the data set with SARS-CoV-2 [12].

Broadly, the IC50 is the concentration needed to halve the response being measured. As usually defined, the half-life is the time needed for the level to fall by half in the phase considered. By EC50 is commonly meant the concentration needed to bring the measured effect to its halfway point.

Source of the values: ChEMBL document CHEMBL5543078, “Peptidomimetics as potent dual SARS-CoV-2 cathepsin-L and main protease inhibitors: In silico design, synthesis and pharmacological characterization” (Eur J Med Chem, 2024).
